Data as given in publication PMC8421423, “Cellular model system to dissect the isoform-selectivity of Akt inhibitors” (Nature Communications, 2021).
“And” between values parts separate entries of the source, which are not always exact repeats. Equal values may be shown once. Read-outs that look alike come from different tables or passages of the source. Blank lines part the entries; values can stand above or below the compound they belong to.

How the values were obtained:
[1] = tested on: Ba/F3^myr-Akt1 cells; experiment: CellTiter-Glo cell viability assay; conditions: for Log ratio EC50 [Akt] / EC50 [Akt], Akt1 / Akt2: cell viability assay Ba/F3 myr-Akt cells, log units
[2] = tested on: parental Ba/F3 cells; experiment: CellTiter-Glo cell viability assay; assay type: cell-based, murine
Description: (§1) On day 0, cells were plated into white 384-well cell culture plates (Greiner Bio-One) using a Multidrop reagent dispenser (Thermo Fisher Scientific) at cell numbers that ensure linear and optimal luminescent signal intensity (Ba/F3myr-Akt1: 600 cells/well, Ba/F3myr-Akt2: 800 cells/well, Ba/F3myr-Akt3: 800 cells/well). […] Cell viability was analyzed on day 4 using the CellTiter-Glo Assay (Promega) as per the manufacturer’s instructions. […] All experimental points were measured in duplicates for each plate and were replicated in at least three plates.

[3] = CellTiter-Glo cell viability assay; assay type: cell-based, murine; conditions: mouse, cell viability
Description: as §1

[4] = tested on: pAkt^S473 and downstream targets in Ba/F3 myr-Akt1; conditions: Ba/F3 myr-Akt1, 4-h treatment
[5] = tested on: Ba/F3^myr-Akt3 cells; experiment: CellTiter-Glo cell viability assay; conditions: for Log ratio EC50 [Akt] / EC50 [Akt], Akt3 / Akt2: cell viability assay Ba/F3 myr-Akt cells, log units
[6] = tested on: Ba/F3^myr-Akt2 cells; experiment: CellTiter-Glo cell viability assay
[7] = target: T1, Akt1 (Homo sapiens, UniProt P31749); experiment: STK HTRF KinEASE activity-based assay (IC50); conditions: for Log ratio IC50 [Akt] / IC50 [Akt], Akt1 / Akt2: biochemical activity based assay, log units
[8] = target: T1, Akt1; experiment: PhosphoSens continuous fluorometric kinetic enzyme assay
Description: (§2) By addition of either 8 nM Akt1, 2 nM Akt2, or 5 nM Akt3 (final concentrations) the reactions were initiated. […] Afterwards the kobs-values were plotted versus the inhibitor concentrations [I] and then fit to the following hyperbolic Eq.

[9] = target: T2, Akt2 (Homo sapiens, UniProt P31751); experiment: as above
Description: as §2

[10] = target: Akt3 (Homo sapiens, UniProt Q9Y243); experiment: STK HTRF KinEASE activity-based assay (IC50)
[11] = target: T2, Akt2; experiment: STK HTRF KinEASE activity-based assay (IC50)
Description: The biochemical half maximal inhibitory concentrations (IC50) were determined with the STK HTRF KinEASE assay (Cisbio) according to the manufactor’s instructions. Briefly: 5 µL Kinase solution and 2.5 µL inhibitor solution (8% DMSO in HTRF buffer) were incubated for 1 h before the reaction was started by addition of 2.5 µL starting solution containing ATP and substrate peptide. […] After reaction completion (Akt1: 60 min, Akt2: 20 min, Akt3: 15 min), 10 µL of stop solution were added. […] The quotient of both intensities were recorded at eight different inhibitor concentrations and data fit to a Hill 4-parameter equation with Quattro software suite (Quattro Research GmbH, Martinsried, Germany). Each reaction was performed in duplicates and at least three independent determinations of each IC50 were made.

[12] = Mus musculus, read-out: CTG BaF3myr-Akt1, Mean, mean of replicates
[13] = Mus musculus, read-out: CTG BaF3myr-Akt1, individual determinations, single replicates
[14] = read-out: CTG BaF3myr-Akt1, individual determinations, single replicates
[15] = Mus musculus, BaF3, CTG, parental BaF3 cell line, read-out: EC50 BaF3
[16] = Mus musculus, BaF3, parental cells, mean of replicates, read-out: CTG BaF3, Mean
[17] = Mus musculus, BaF3, parental cells, single replicates, read-out: CTG BaF3, individual determinations
[18] = parental cells, single replicates, read-out: CTG BaF3, individual determinations
[19] = read-out: CTG BaF3myr-Akt3, individual determinations, single replicates
[20] = Mus musculus, read-out: CTG BaF3myr-Akt2, Mean, mean of replicates
[21] = read-out: CTG BaF3myr-Akt2, individual determinations, single replicates

Chain of Akt3 (Q9Y243 whole entry): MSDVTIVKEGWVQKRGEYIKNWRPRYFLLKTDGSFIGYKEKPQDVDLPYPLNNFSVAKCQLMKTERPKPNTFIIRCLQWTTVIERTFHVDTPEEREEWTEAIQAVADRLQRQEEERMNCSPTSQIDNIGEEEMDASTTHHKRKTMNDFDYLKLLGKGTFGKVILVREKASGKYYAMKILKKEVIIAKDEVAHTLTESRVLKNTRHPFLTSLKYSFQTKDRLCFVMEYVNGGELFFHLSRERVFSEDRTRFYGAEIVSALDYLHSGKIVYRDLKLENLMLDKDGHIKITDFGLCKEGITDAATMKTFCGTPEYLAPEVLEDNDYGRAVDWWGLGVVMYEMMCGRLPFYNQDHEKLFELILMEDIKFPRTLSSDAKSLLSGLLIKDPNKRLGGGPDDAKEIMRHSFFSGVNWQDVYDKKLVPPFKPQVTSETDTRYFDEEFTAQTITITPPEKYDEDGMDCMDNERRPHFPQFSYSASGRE
T2 sequence (P31751 whole entry): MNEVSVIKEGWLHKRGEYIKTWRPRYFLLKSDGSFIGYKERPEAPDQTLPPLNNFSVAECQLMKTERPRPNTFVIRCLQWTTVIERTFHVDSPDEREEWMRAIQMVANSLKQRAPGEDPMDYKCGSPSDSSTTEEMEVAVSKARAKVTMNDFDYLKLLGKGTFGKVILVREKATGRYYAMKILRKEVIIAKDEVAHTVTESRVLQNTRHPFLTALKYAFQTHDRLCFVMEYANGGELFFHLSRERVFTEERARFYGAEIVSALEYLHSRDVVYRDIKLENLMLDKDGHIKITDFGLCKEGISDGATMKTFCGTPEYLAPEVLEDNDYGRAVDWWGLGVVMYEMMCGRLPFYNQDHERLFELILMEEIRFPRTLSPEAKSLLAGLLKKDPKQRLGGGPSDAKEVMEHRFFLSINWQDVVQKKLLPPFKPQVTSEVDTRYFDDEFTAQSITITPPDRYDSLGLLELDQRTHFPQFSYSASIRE
T1 sequence (P31749 whole entry): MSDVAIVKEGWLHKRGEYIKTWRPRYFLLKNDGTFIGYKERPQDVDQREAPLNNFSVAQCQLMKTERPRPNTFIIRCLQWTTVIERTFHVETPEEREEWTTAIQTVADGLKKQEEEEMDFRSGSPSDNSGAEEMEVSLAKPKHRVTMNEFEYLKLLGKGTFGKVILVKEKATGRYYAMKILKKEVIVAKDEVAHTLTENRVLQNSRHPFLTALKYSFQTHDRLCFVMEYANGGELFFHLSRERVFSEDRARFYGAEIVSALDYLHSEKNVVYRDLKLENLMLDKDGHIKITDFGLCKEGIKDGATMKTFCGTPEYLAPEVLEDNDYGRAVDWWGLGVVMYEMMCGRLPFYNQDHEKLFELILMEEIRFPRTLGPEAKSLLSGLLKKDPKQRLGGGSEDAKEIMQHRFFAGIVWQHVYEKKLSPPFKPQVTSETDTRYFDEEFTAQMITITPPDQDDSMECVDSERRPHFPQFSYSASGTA

SMILES: C=CC(=O)Nc1ccc2[nH]c(=O)n(C3CCN(Cc4ccc(-c5nc(C)c(=O)[nH]c5-c5ccccc5)cc4)CC3)c2c1 [15a, reference compound]
EC50 [1, 12]: 7.21 µM
EC50 [1, 13]: 7.37 µM
viability at 0.0001 µM ([1]; Mus musculus, read-out: cell viability, CTG, myr-Akt1, 0.1 nM, single replicates): 107%
viability at 5 µM ([1]; Mus musculus, read-out: cell viability, CTG, myr-Akt1, 5000 nM, single replicates): 72.2%
Log ratio EC50 [Akt] / EC50 [Akt], Akt1 / Akt2 [1]: -0.31
EC50 [1, 14]: 7.33 µM and 7.9 µM and 6.25 µM
EC50 [2, 15]: > 30 µM
EC50 [2, 16]: > 30 µM
EC50 [2, 17]: > 30 µM
EC50 [2, 18]: > 30 µM
viability at 3 days, 0.0001 µM [3]: 107%
pAkt and downstream targets (immunoblot) [4]: more potent towards myr-Akt1 than myr-Akt2 and myr-Akt3
EC50 ([5]; Mus musculus, read-out: CTG BaF3myr-Akt3, individual determinations, single replicates): > 30 µM
viability at 0.0001 µM ([5]; Mus musculus, read-out: cell viability, CTG, myr-Akt3, 0.1 nM, single replicates): 105%
viability at 5 µM ([5]; Mus musculus, read-out: cell viability, CTG, myr-Akt3, 5000 nM, single replicates): 99.8%
Log ratio EC50 [Akt] / EC50 [Akt], Akt3 / Akt2 [5]: -0.26
EC50 [5, 19]: > 30 µM (2×) and 17.8 µM
EC50 [6, 20]: 14.9 µM
viability at 0.0001 µM ([6]; Mus musculus, read-out: cell viability, CTG, myr-Akt2, 0.1 nM, single replicates): 100%
viability at 5 µM ([6]; Mus musculus, read-out: cell viability, CTG, myr-Akt2, 5000 nM, single replicates): 96.1%
EC50 [6, 21]: 13.5 µM and 21.4 µM and 14.1 µM and 10.4 µM
Log ratio IC50 [Akt] / IC50 [Akt], Akt1 / Akt2 [7]: -2.52

EC50 [1, 12]: 1.07 µM
EC50 [1, 13]: 1.29 µM
EC50 [1, 14]: 0.706 µM and 1.2 µM and 1.1 µM
EC50 [6, 20]: 0.938 µM
EC50 ([6]; Mus musculus, read-out: CTG BaF3myr-Akt2, individual determinations, single replicates): 1.14 µM
EC50 [6, 21]: 1.07 µM and 0.6 µM
SMILES: NC1(C(=O)N[C@@H](CCO)c2ccc(Cl)cc2)CCN(c2ncnc3[nH]ccc23)CC1 [Capivasertib, reference compound]
EC50 [2, 16]: 16 µM
EC50 [2, 18]: 11 µM and 13.9 µM and 23 µM
pAkt and downstream targets (immunoblot) [4]: less effective

EC50 [1, 12]: 17.8 µM
EC50 [1, 14]: 14.1 µM and 13.1 µM and 26.3 µM
Ki ([8]; Ki Akt1): 0.006 ± 0.001 µM
Ki ([8]; Ki Akt1, Mean, mean of replicates): 0.00662 µM
Ki ([8]; Ki Akt1, individual determinations, single replicates): 0.0042 µM and 0.0078 µM and 0.0079 µM
kinact/KI ([8]; read-out: kinact /Ki Akt1): 32000 ± 5000 M⁻¹ s⁻¹
kinact/KI ([8]; read-out: kinact /Ki Akt1, Mean, mean of replicates): 44000 M⁻¹ s⁻¹
kinact ([8]; read-out: kinact Akt1): 0.000167 s⁻¹
kinact ([8]; read-out: kinact Akt1, Mean, mean of replicates): 0.000267 s⁻¹
kinact ([8]; read-out: kinact Akt1, individual determinations, single replicates): 0.000267 s⁻¹
kinact Akt1, individual determinations ([8]; single replicates): 0.014 min⁻¹ and 0.018 min⁻¹
Ki ([9]; Ki Akt2): 0.011 ± 0.002 µM
Ki ([9]; Ki Akt2, Mean, mean of replicates): 0.0113 µM
Ki ([9]; Ki Akt2, individual determinations, single replicates): 0.0101 µM and 0.0102 µM and 0.0136 µM
kinact/KI ([9]; read-out: kinact /Ki Akt2): 15000 ± 1000 M⁻¹ s⁻¹
kinact/KI ([9]; read-out: kinact /Ki Akt2, Mean, mean of replicates): 15000 M⁻¹ s⁻¹
kinact/KI ([9]; read-out: kinact /Ki Akt2, individual determinations, single replicates): 15000 M⁻¹ s⁻¹
kinact ([9]; read-out: kinact Akt2): 0.000167 s⁻¹
kinact ([9]; read-out: kinact Akt2, individual determinations, single replicates): 0.00015 s⁻¹
kinact Akt2, individual determinations ([9]; single replicates): 0.009 min⁻¹ and 0.013 min⁻¹
EC50 ([5]; Mus musculus, read-out: CTG BaF3myr-Akt3, Mean, mean of replicates): 18.2 µM
EC50 [5, 19]: 10.3 µM and 26 µM and 21.5 µM
IC50 ([10]; HTRF IC50 Akt3, Mean, mean of replicates): 5.27 µM
IC50 ([10]; HTRF IC50 Akt3, individual determinations, single replicates): 3.82 µM and 6.13 µM and 5.85 µM
IC50 ([10]; IC50 Akt3, HTRF, ATP at KM, 1 h preincubation): 5.27 ± 1.03 µM
EC50 [6, 20]: 1.48 µM
EC50 [6, 21]: 1.64 µM and 2.11 µM and 0.691 µM
IC50 ([7]; HTRF IC50 Akt1, Mean, mean of replicates): 0.0906 µM
IC50 ([7]; HTRF IC50 Akt1, individual determinations, single replicates): 0.106 µM and 0.0737 µM and 0.0923 µM
IC50 ([7]; IC50 Akt1, HTRF, ATP at KM, 1 h preincubation): 0.091 ± 0.013 µM
Log ratio IC50 [Akt] / IC50 [Akt], Akt1 / Akt2 [7]: 0.37
IC50 ([11]; HTRF IC50 Akt2, Mean, mean of replicates): 0.0384 µM
IC50 ([11]; HTRF IC50 Akt2, individual determinations, single replicates): 0.0367 µM and 0.0479 µM and 0.04 µM
IC50 ([11]; IC50 Akt2, HTRF, ATP at KM, 1 h preincubation): 0.039 ± 0.006 µM
SMILES: C=CC(=O)Nc1ccc2[nH]c(=O)n(C3CCN(Cc4ccc(-c5ncc(C(=O)Nc6cccc(N)c6)cc5-c5ccccc5)cc4)CC3)c2c1 [compound 18]
Log ratio EC50 [Akt] / EC50 [Akt], Akt1 / Akt2 [1]: 1.08
EC50 [2, 15]: > 30 µM
EC50 [2, 16]: > 30 µM
EC50 [2, 17]: > 30 µM
EC50 [2, 18]: > 30 µM
Log ratio EC50 [Akt] / EC50 [Akt], Akt3 / Akt2 [5]: -1.09
